According to paper PMC4928094, “The first characterization of multidrug and toxin extrusion (MATE/SLC47) proteins in zebrafish (Danio rerio)” (Scientific Reports, 2016):
Where a name gives a salt, the structure may show the parent alone. Read-outs that look alike come from different tables or passages of the source.

Experiments:
[1] = target: zebrafish Mate8 (Danio rerio, UniProt A0A8M6YZ09); assay: DAPI inhibition assay, Mate8; format: cell-based; conditions: for interaction strength: class by IC50 of DAPI uptake inhibition; for interaction with DAPI uptake (in words): co-incubation with modulator (50 μM–2 mM), Fig. 5
Method: (§1) HEK293T cells were transiently transfected as described previously[31] using the PEI (polyethyleneimine) reagent in 48-well plates. Cells were in parallel transfected with pcDNA3.1/His/LacZ plasmid and transfection efficiency was evaluated 24 h after transfection with the LacZ staining protocol.
(§2) HEK293T cells overexpressing respective single zebrafish Mate transporter were used for further experiments. […] DAPI fluorescence was measured at 360 and 460 nm […], respectively. The uptake into vector-transfected HEK293T cells (mock cells) was subtracted to obtain transporter-specific uptake.
(§3) Inhibition assays using DAPI as a fluorescent substrate were performed in the same transport medium. […] Compounds tested for interaction were checked using at least four concentrations but only a representative concentration (with the highest response or the largest concentration in solubility range) is shown.
(§4) For the purpose of IC50 calculations, data were fitted to the sigmoidal four-parameter dose-response model (variable slope),

[2] = target: zebrafish Mate4 (Danio rerio, UniProt U3Q0C3); assay: DAPI inhibition assay, Mate4; format: cell-based; conditions: for interaction with DAPI uptake (in words): co-incubation with modulator (50 μM–2 mM), Fig. 5
Method: as §1, §2, §3, §4

[3] = target: zebrafish Mate6 (Danio rerio, UniProt A1L2E7); assay: DAPI inhibition assay, Mate6; format: cell-based; conditions: for interaction strength: class by IC50 of DAPI uptake inhibition; for interaction with DAPI uptake (in words): co-incubation with modulator (50 μM–2 mM), Fig. 5
Method: as §1, §2, §3, §4

[4] = target: zebrafish Mate7 (Danio rerio, UniProt U3PTD6); assay: DAPI inhibition assay, Mate7; format: cell-based; conditions: for interaction strength: class by IC50 of DAPI uptake inhibition; for interaction with DAPI uptake (in words): co-incubation with modulator (50 μM–2 mM), Fig. 5
Method: as §1, §2, §3, §4

[5] = tested on: CC[n+]1c(-c2ccccc2)c2cc(N)ccc2c2ccc(N)cc21; assay: cells, lysate or membranes; conditions: dye uptake, HEK293T, mean ± SD
Method: (§5) Calibration curves for all substrates were generated in 0.1% SDS and in the cell matrix dissolved in 0.1% SDS. Resulting linear calibration curves were the same in the SDS and in the dissolved cell matrix. Using the calibration curves, uptake was expressed as pmol of substrate per mg of protein per minute. Total cell protein content was determined according to the Bradford method[33].
(§6) All assays were performed in 3–5 independent experiments run in triplicates. […] All calculations were performed using GraphPad Prism 5.00 for Windows (GraphPad Software, San Diego, California, USA) as described below. The kinetic parameters, Km and Vmax values were calculated using the Michaelis-Menten equation,
(§7) where V is velocity (picomoles of substrate per milligram of proteins per minute), Vmax is maximal velocity, [S] is substrate concentration and Km is the Michaelis Menten constant.

[6] = target: T1, zebrafish Mate3 (Danio rerio, UniProt A1L1P9); assay: DAPI inhibition assay, Mate3; format: cell-based; parameters: expressed in transfected cells; host or cells: HEK293T; conditions: for interaction with DAPI uptake (in words): Mate3, co-incubation with modulator (50 μM–2 mM), Fig. 5
T1 sequence (A1L1P9 1-590): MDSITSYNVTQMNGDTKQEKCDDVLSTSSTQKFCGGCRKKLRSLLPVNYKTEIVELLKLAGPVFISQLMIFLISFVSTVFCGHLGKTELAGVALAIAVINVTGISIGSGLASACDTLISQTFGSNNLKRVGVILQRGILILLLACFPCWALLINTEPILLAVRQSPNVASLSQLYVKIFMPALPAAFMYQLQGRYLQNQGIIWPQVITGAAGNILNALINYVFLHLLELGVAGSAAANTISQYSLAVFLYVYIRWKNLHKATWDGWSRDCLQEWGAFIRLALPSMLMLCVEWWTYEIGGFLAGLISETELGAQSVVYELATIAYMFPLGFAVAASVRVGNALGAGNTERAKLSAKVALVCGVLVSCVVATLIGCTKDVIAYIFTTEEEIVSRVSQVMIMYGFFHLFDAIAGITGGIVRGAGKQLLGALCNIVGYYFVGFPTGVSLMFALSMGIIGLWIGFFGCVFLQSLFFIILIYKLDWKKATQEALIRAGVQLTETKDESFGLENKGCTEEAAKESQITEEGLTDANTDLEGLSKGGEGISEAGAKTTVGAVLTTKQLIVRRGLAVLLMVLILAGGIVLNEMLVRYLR
Method: as §1, §2, §3, §4

[7] = substrate: COC(=O)c1ccccc1-c1c2ccc(=N)cc-2oc2cc(N)ccc12; assay: cells, lysate or membranes; conditions: dye uptake, HEK293T, mean ± SD, NT = no transport found
Method: as §5, §6, §7

[8] = substrate: CN(C)c1ccc(/C=C/c2cc[n+](C)cc2)cc1; assay: cells, lysate or membranes; conditions: dye uptake, HEK293T, mean ± SD, NT = no transport found
Method: as §5, §6, §7

[9] = other: Mate8, NT = no transport found
[10] = Mate4, inhibition of DAPI (1 μM) uptake, n = 3, NE = no effect in the compound solubility range, read-out: IC50
[11] = Mate7, inhibition of DAPI (2.5 μM) uptake, n = 3, NE = no effect in the compound solubility range, read-out: IC50
[12] = other: Mate4, NT = no transport found

Sequence of zebrafish Mate6 (A1L2E7 entry or part of it): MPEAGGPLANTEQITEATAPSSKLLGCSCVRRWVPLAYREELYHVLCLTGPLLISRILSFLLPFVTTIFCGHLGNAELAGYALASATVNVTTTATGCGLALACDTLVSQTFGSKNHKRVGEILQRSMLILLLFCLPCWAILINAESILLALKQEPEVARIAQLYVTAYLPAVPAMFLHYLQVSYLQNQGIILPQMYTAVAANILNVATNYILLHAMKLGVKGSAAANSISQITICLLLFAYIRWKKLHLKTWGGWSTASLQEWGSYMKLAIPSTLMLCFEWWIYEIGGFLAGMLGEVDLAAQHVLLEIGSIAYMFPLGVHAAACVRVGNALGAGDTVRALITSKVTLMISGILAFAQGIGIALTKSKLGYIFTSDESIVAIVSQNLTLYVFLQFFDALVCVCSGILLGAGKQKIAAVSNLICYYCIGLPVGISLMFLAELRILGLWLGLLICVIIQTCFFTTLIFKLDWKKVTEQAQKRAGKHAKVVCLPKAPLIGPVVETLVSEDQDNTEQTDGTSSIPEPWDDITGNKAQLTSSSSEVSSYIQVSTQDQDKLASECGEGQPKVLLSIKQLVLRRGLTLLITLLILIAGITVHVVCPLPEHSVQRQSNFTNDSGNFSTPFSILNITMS
Sequence of zebrafish Mate7 (U3PTD6 entry or part of it): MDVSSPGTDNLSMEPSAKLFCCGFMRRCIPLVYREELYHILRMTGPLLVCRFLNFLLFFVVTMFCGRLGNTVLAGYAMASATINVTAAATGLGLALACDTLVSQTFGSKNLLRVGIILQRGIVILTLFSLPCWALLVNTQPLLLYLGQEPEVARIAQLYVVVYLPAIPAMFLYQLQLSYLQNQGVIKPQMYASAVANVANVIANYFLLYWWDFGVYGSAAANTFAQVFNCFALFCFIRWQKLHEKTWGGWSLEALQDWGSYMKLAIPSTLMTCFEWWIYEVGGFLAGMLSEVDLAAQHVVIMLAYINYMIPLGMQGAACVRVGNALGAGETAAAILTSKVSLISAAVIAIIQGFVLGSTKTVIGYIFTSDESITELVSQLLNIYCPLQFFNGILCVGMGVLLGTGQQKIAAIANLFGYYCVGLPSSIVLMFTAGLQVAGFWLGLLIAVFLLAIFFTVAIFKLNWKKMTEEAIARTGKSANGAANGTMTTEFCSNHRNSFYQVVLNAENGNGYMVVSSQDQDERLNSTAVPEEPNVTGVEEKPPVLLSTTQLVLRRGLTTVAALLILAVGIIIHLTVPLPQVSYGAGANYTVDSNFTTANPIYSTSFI

## C[C@]12C[C@H](O)[C@H]3[C@@H](CCC4=CC(=O)CC[C@@]43C)[C@@H]1CC[C@@H]2C(=O)CO [Corticosterone, corticosterone]
[1]
  IC50: 22.1 µM
[1]; Mate8
  interaction strength: strong (Compounds with IC50 of 1–29 μM were designated as strong interactors)
[2]
  IC50: 238 µM
[3]
  IC50: 99.3 µM
[3]; Mate6
  interaction strength: moderate (IC50 of 30–99 μM indicated moderate interaction)
[4]
  IC50: 99.6 µM
[4]; Mate7
  interaction strength: weak (IC50 of 100–999 μM was classified as weak interaction)

## C[n+]1ccc(-c2cc[n+](C)cc2)cc1 [Paraquat, paraquat, reference compound]
[1]
  IC50: 6290 µM
[1]; Mate8
  interaction strength: very weak (substances with IC50 above 1000 μM were considered very weak interactors)
[2]
  IC50: 462 µM
[3]
  IC50: 5730 µM
[4]; Mate7
  interaction with DAPI uptake (in words): too weak to determine the IC50

## C[C@]12CCC(=O)C=C1CC[C@@H]1[C@@H]2CC[C@]2(C)C(=O)CC[C@@H]12 [Androstenedione, androstenedione]
[1]
  IC50: 20.1 µM
[1]; Mate8
  interaction strength: strong (Compounds with IC50 of 1–29 μM were designated as strong interactors)
[2]
  IC50: 114 µM
[3]
  IC50: 25.3 µM
[4]
  IC50: 14.9 µM
[4]; Mate7
  interaction strength: strong (Compounds with IC50 of 1–29 μM were designated as strong interactors)

## zebrafish Mate8 (Danio rerio)
[5]; [9]
  Km: 0.85 ± 0.12 µM
  Vmax: 17.0 ± 0.59 pmol/mg protein/min

## CC[N+](CC)(CC)CC [TEA, tetraethylammonium, reference compound]
[6]
  interaction with DAPI uptake (in words): did not interact
[1]; Mate8
  interaction with DAPI uptake (in words): not inhibited
[2]; [10]
  IC50: 5240 µM
[4]; [11]
  IC50: 3310 µM

## CN(C)C(=N)N=C(N)N [metformin, reference compound]
[1]; Mate8
  interaction with DAPI uptake (in words): did not interact
[2]; Mate4
  interaction with DAPI uptake (in words): did not interact
[3]; Mate6
  interaction with DAPI uptake (in words): did not interact
[4]; Mate7
  interaction with DAPI uptake (in words): did not interact

## C[C@]12CC[C@H](OS(=O)(=O)O)CC1=CC[C@@H]1[C@@H]2CC[C@]2(C)C(=O)CC[C@@H]12 [DHEAS, dehydroepiandrosterone sulfate]
[1]; Mate8
  interaction strength: strong (Compounds with IC50 of 1–29 μM were designated as strong interactors)
[1]; Mate8, inhibition of DAPI (1 μM) uptake, n = 3, NE = no effect in the compound solubility range, read-out: IC50
  IC50: 26.9 µM
[2]; [10]
  IC50: 313 µM
[3]; Mate6
  interaction strength: moderate (IC50 of 30–99 μM indicated moderate interaction)
[3]; Mate6, inhibition of DAPI (1 μM) uptake, n = 3, NE = no effect in the compound solubility range, read-out: IC50
  IC50: 39.1 µM
[4]; Mate7
  interaction strength: moderate (IC50 of 30–99 μM indicated moderate interaction)
[4]; [11]
  IC50: 60.2 µM

## C[C@H](CCC(=O)O)[C@H]1CC[C@H]2[C@@H]3CC[C@@H]4C[C@H](O)CC[C@]4(C)[C@H]3C[C@H](O)[C@]12C [Deoxycholate, deoxycholate]
[1]
  IC50: 274 µM
[1]; Mate8
  interaction strength: weak (IC50 of 100–999 μM was classified as weak interaction)
[4]
  IC50: 203 µM
[4]; Mate7
  interaction strength: weak (IC50 of 100–999 μM was classified as weak interaction)

## C=C[C@H]1C[N@@]2CC[C@H]1C[C@@H]2[C@@H](O)c1ccnc2ccc(OC)cc12 [Quinidine, quinidine, reference compound]
[6]; read-out: IC50
  IC50: 58.4 µM

## zebrafish Mate7 (Danio rerio)
[5]; other: Mate7
  Km: 0.79 ± 0.19 µM
  Vmax: 26.3 ± 1.82 pmol/mg protein/min

## zebrafish Mate6 (Danio rerio)
[5]; other: Mate6
  Km: 2.98 ± 0.18 µM
  Vmax: 504 ± 9.79 pmol/mg protein/min

## CN1CC(=O)NC1=N [creatinine]
[6]
  interaction with DAPI uptake (in words): did not interact
[1]; Mate8
  interaction with DAPI uptake (in words): did not interact
[2]; Mate4
  interaction with DAPI uptake (in words): did not interact
[3]; Mate6
  interaction with DAPI uptake (in words): did not interact
[4]; Mate7
  interaction with DAPI uptake (in words): did not interact

## C[C@]12CC[C@H]3[C@@H](CCC4=CC(=O)CC[C@@]43C)[C@@H]1CC[C@@H]2O [Testosterone, testosterone]
[6]
  IC50: 669 µM
  interaction with DAPI uptake (in words): inhibited
[1]
  IC50: 50.5 µM
[1]; Mate8
  interaction strength: moderate (IC50 of 30–99 μM indicated moderate interaction)
  interaction with DAPI uptake (in words): inhibited
[2]
  IC50: 651 µM
[2]; Mate4
  interaction with DAPI uptake (in words): inhibited
[3]
  IC50: 39 µM
[3]; Mate6
  interaction strength: moderate (IC50 of 30–99 μM indicated moderate interaction)
  interaction with DAPI uptake (in words): inhibited
[4]
  IC50: 42 µM
[4]; Mate7
  interaction strength: moderate (IC50 of 30–99 μM indicated moderate interaction)
  interaction with DAPI uptake (in words): inhibited

## zebrafish Mate4 (Danio rerio)
[5]; [12]
  Km: 0.45 ± 0.08 µM
  Vmax: 37.4 ± 2.02 pmol/mg protein/min

B1: zebrafish Mate4 (Danio rerio) (protein)
chain: MEMNSIHTEDHINGYQKEEKVEDAQLTSRSICAECLRKLRRLLPVNYKEEVMQLLKLAGPVFISQLMIFLISFVSTVFCGHLGKTELAGVALAIAVINVTGISIGSGLASACDTLISQTFGSNNLKRVGVILQRGILILLLACFPCWALLINTEPILLAVRQSPNVASLSQLYVKIFMPALPATFMYQLQGLYLQNQGIIWPQVITGAAGNILNALINYVFLYLLDLGVPGSAAANAISQYSLAVILYTYIRCMGLHKATWDGWSWDCLQEWGSFIRLALPSMLMLCAEWWTYEIGGFLAGLISEVELGAQSIVYELASVMYMFPLGFAVAAGVRVGNALGAGNTEQAKLSAKVSLVCGLLVSSVIAVVIAGTNNIIGYIFSKDEDIVLRVSQVMVMYGFVHLFDATSAITGGIVRGAGKQQIGALCNMVGYYCVGFPIGVSLMFAFNMGIVGLWIGFFTCVFLQSLFFIILIYRLDWKKATQEALIRAGVQLTEIKYESFGLENKGCTEEAAQENTEEGQTDTNTDLEGLSKGEGGITDAVALVTVGEVLTAKQLAVRRGLAFFFMLLILTGGIVLNEVLIRFVI
[7]; other: Mate4
  Km: 0.32 ± 0.03 µM
[8]; other: Mate4
  Km: 4.49 ± 0.63 µM
  Vmax: 23.6 ± 1.23 pmol/mg protein/min

B2: zebrafish Mate8 (Danio rerio) (protein)
chain: MDVSSPTTEASSMEPSTKLFCCRSVRRCIPLVYRQELYHILCMTGPLVASRILNYLLPFVITMFCGRLGNSVLAGYGMASATINITTAATGGGLALAADTLISQTFGGKNLRRVGIILQRSVLILLLFCLPCCALLINTQPILLLLRQDPEVARIAQLYVVCYLPAVPAMFLHQLQVAYLQNQGVILPQMYAGIAANVANVLTNYILLHWLELGVYGSAAANTISQIYICAFLYLYIRWKKLHVETWGGWSCDSLQEWDGYMKLAIPSTMMLCFEWWIYEVGGFLAGMLGELDLAAQHAVIMLAFINYMFPLGIQGAACVRVGNALGAGDTAGAIRTSKVSLTCTAALAVLQGLVLVSTKTVIGFLFTSDRHIVALVSKLLNVYCVLQFFDGLVCVSMGILLGSGQQKIAAVANFFGYYCIGLPLGTSLMFAAKLDVVGFWLGLLICVCVQSSFFIGVIFKFNWERVTKEAVERAGRTKISAMTAPDSITARHRENGDEYITVSAADPNVEPNATGVEEKPPVLLSTSQLVLRRGLTTLAALLILAGGITVHLIVPLPQMFYGAAANFTLNSNFTTPSSFIHSTSASL
[7]; other: Mate8
  Km: 0.88 ± 0.14 µM
[8]; other: Mate8
  Km: 2.34 ± 0.37 µM
  Vmax: 22.2 ± 1.09 pmol/mg protein/min
